Series [1] can be described thus: Micronucleus assay (flow analysis, 7-day oral toxicity study). Format: in vivo. The conditions noted are these: rat blood, Day 8 of 7-day oral study. As to the method:
Prior to necropsy on Day 8, rats in a main study group of a 7-day oral toxicity and toxicokinetic (TK) study were bled from the jugular vein for the evaluation of the flow analysis of micronucleus. […] The procedure used for collection and fixation of blood is summarized below:
Preparation of the Fixative Tubes: Fixative tubes were prepared one day prior to blood collection. Two 15 mL polypropylene centrifuge tubes (VWR no. 21008-103) were required per sample. 2 mL of ultracold fixative-methanol was added to each appropriately labeled tube (Tubes B1 and B2), and caps were replaced. The rack of tubes was placed overnight at approximately −80° C. to allow for sufficient chilling of the fixative.
Preparation of the Anticoagulant/Diluent Vials (prior to blood collection): One vial (2 mL cryovials; VWR no. 66008-728) was required for each sample. 350 μL of anticoagulant/diluent (Prototype Pig-a Mutation Assay Anticoagulant Solution, lot #17716, provided by BioReliance, from Litron) was aseptically aliquoted into each appropriately labeled vial (Tube A). […]
Transferring of Fixed Samples into LTSS: Samples were transferred into LTSS after they had been in the fixative for at least 3 days. […] With a container of ice and a 25 mL pipette ready for aliquoting the buffer solution used below, the following steps were performed as quickly as possible (within approximately 20 seconds). […]

Another series relates to MBT-2 cells. In words: In vitro cell viability assay, MBT-2. The format is cell-based, murine. The conditions noted are these: Mus musculus.
Series [2] concerns Colon26 murine colon cancer cells. The series is described as follows: Prophylactic Colon26 colon cancer model. The format is in vivo, BALB/c mice. The conditions noted are these: alone or with antibody. As to the method: Charles River (CR) BALB/c mice were implanted with Colon26 murine colon cancer cells on Day 1, and treatment was initiated on Day 3 with control (vehicle), anti-CTLA-4 (clone 4F10), anti-PD-1 (clone RMP1-14), anti-CTLA-4/anti-PD-1 combination, LPT-723 (10 mpk, 30 mpk), anti-CTLA-4/LPT-723 (10 mpk, 30 mpk) combination, or anti-PD-1/LPT-723 (10 mpk, 30 mpk) combination. Anti-CTLA-4 was dosed i.p. on Day 8 at a dose of 100 μg/animal and on Days 11, and 14 at a dose of 50 μg/animal. Anti-PD-1 was dosed i.p. twice a week for two weeks starting on Day 3 at a dose of 100 μg/animal. LPT-723 was dosed per os (p.o.) twice a day starting on Day 3.

Series [3] is described as follows: Monkey 7-day dose range finding study. The format is in vivo. On the procedure: Preparation of the Control/Vehicle Item: The control/vehicle item (2% TPGS/1.5% HPMCAS-HF/1.5% PVP-VA with 50 mM sodium citrate buffer pH 5.0) was prepared 3 days prior to the start of dosing and was stored at room temperature, away from direct light for the duration of the study. The instructions below were for the preparation of a final volume of 2.5 L. These instructions were scaled as needed.
500 mL of 10% Vitamin E-TPGS were added to an appropriate sized container and stirring was initiated. 750 mL of 5% HPMCAS-HF/5% PVP-VA were added to the same container and stirred at medium speed for 30 minutes to ensure proper mixing. 1 L of deionized water was added and stirring was continued for 30 minutes. 125 mL of 1M sodium citrate buffer and 125 mL of deionized water were added with stirring. The final vehicle was stirred at medium speed for 1 hour. The vehicle was a hazy solution and was stored at room temperature, away from direct light for the duration of the study.
Experimental Design: The test and control/vehicle items were administered once daily for 7 consecutive days by oral gavage as described in Table 6 below. The dose volume administered to each animal was 5 mL/kg. One day after the end of dosing, the Main animals were euthanized and subjected to a necropsy examination on Day 8.

Each structure is given as a SMILES string. Entries after “also recorded” stand apart in the source; their conditions may differ.

On to `Cc1cc(-c2cncc(C(O)C(F)(F)F)c2)nc2c1C(=O)N(c1cnn(CC(F)F)c1)C2(C)C` (centres unmarked) [LPT-723], for which the “toxicity, micronucleus flow analysis” value in series [1] is reported as “No toxicity was observed; also recorded: no significant toxicity”. In the series with MBT-2 cells, this molecule had an IC50 of 45.5 µM. Besides, in series [2] (MR237 10 mg/kg bid), the “% TGD” value was 0%, the T-C is reported as −0 and the TFS came to 0. For the same molecule, the “Median TTE” value in series [2] (MR237 10 mg/kg p.o. bid from Day 3 to end) is listed as 31.9. Moreover, in series [2] (MR237 30 mg/kg bid), the “% TGD” value is given as 5%, the T-C is 1.7 and the TFS came to 1. For the same molecule, the “MTV (n), Day 57” value in series [2] (MR237 30 mg/kg bid, Day 57) is 0 (1). In addition, in series [2] (MR237 30 mg/kg p.o. bid from Day 3 to end), the “Median TTE” value is recorded as 33.7. Besides, the “highest dose versus maximum tolerated dose” value in series [3] (monkey, 40 mg/kg/day oral, 7 days) is recorded as “exceeded the maximum tolerated dose (MTD)”. Further, the lymphocyte counts entry in series [3] (monkey, 15, 25, 40 mg/kg/day, 7 days) is listed as “dose-related decrease in lymphocyte counts”. Besides, the expected therapeutic index result in series [3] (monkey, with lower doses) is recorded as “approximately 5”.

As a reminder, the IC50 is the concentration at which inhibition is half-maximal.

The record behind these values is patent US11033537B2, “LPT-723 and immune checkpoint inhibitor combinations and methods of treatment” (BIOMED VALLEY DISCOVERIES, INC., priority 2015, dated 2021).
